From ChEMBL document CHEMBL5247627, “1-Methyl-3-((4-(quinolin-4-yloxy)phenyl)amino)-1H-pyrazole-4-carboxamide derivatives as new rearranged during Transfection (RET) kinase inhibitors capable of suppressing resistant mutants in solvent-front regions” (Eur J Med Chem, 2022)
pIC50: −log10 of the molar value. The source made the active and inactive calls. The rule behind the calls is not given here.

Experiments:
[1] = system: BaF3; assay: Antitumor activity against mouse BaF3 cells harbouring CCDC6-RET G810C cells xenografted in CB17-SCID mouse assessed as reduction in tumor growth administered intraperitoneally qd administered for 12 days measured every 2 days; assay type: functional, cell-based; settings: dose 10-30 mg/kg, route ip, time 12.0 day
[2] = system: BaF3; assay: Antiproliferative activity against mouse BaF3 cells expressing rearranged during transfection kinase G810C-CCDC6 incubated for 74 to 76 hrs by cell counting kit 8 method
[3] = system: BaF3; assay: Induction of apoptosis in mouse BaF3 cells harbouring CCDC6-RET G810R assessed as necrotic cells measured at 33.3 nM for 48 hrs by Annexin V-FITC staining based Guava easyCyte flow cytometric analysis (reference value: 0.64 %); assay type: functional
[4] = system: BaF3; assay: Antiproliferative activity against mouse BaF3 cells expressing rearranged during transfection kinase V804L-KIF5B incubated for 74 to 76 hrs by cell counting kit 8 method
[5] = Toxicity in CB17-SCID mouse xenografted with BaF3 cells expressing CCDC6-RET G810C assessed as loss of body weight measured at 10 to 30 mg/kg, ip qd administered for 12 days measured every 2 days; assay type: organism-based; settings: in vivo, 288 h, dose 10-30 mg/kg, time 12 day
[6] = system: BaF3; assay: Antiproliferative activity against mouse BaF3 cells expressing rearranged during transfection kinase V804L-G810C incubated for 74 to 76 hrs by cell counting kit 8 method
[7] = system: BaF3; assay: Induction of apoptosis in mouse BaF3 cells harbouring CCDC6-RET G810R assessed as necrotic cells measured at 300 nM for 48 hrs by Annexin V-FITC staining based Guava easyCyte flow cytometric analysis (reference value: 0.64 %); assay type: functional
[8] = system: BaF3; assay: Induction of apoptosis in mouse BaF3 cells harbouring CCDC6-RET G810R assessed as late apoptotic cells measured at 300 nM for 48 hrs by Annexin V-FITC staining based Guava easyCyte flow cytometric analysis (reference value: 3.4 %); assay type: functional
[9] = system: BaF3; settings: Mus musculus, dose 100.0 nM, time 4.0 hrs
[10] = system: BaF3; settings: Mus musculus, dose <= 100.0 nM, time 4.0 hrs
[11] = system: BaF3; assay: Induction of apoptosis in mouse BaF3 cells harbouring CCDC6-RET G810C assessed as viable cells measured at 100 nM for 48 hrs by Annexin V-FITC staining based Guava easyCyte flow cytometric analysis (reference value: 90.90 %); assay type: functional; settings: read-out: Activity
[12] = system: BaF3; assay: Antiproliferative activity against mouse BaF3 cells expressing rearranged during transfection kinase G810R-CCDC6 incubated for 74 to 76 hrs by cell counting kit 8 method
[13] = system: BaF3; assay: Induction of apoptosis in mouse BaF3 cells harbouring CCDC6-RET G810C assessed as viable cells measured at 300 nM for 48 hrs by Annexin V-FITC staining based Guava easyCyte flow cytometric analysis (reference value: 90.90 %); assay type: functional; settings: read-out: Activity
[14] = system: BaF3; assay: Antiproliferative activity against mouse BaF3 cells expressing rearranged during transfection kinase V804M-CCDC6 incubated for 74 to 76 hrs by cell counting kit 8 method
[15] = system: BaF3; assay: Induction of apoptosis in mouse BaF3 cells harbouring CCDC6-RET G810C assessed as late apoptotic cells measured at 33.3 nM for 48 hrs by Annexin V-FITC staining based Guava easyCyte flow cytometric analysis (reference value: 2.65 %); assay type: functional
[16] = system: BaF3; assay: Induction of apoptosis in mouse BaF3 cells harbouring CCDC6-RET G810C assessed as early apoptotic cells measured at 100 nM for 48 hrs by Annexin V-FITC staining based Guava easyCyte flow cytometric analysis (reference value: 6.10 %); assay type: functional
[17] = system: BaF3; assay: Induction of apoptosis in mouse BaF3 cells harbouring CCDC6-RET G810R assessed as late apoptotic cells measured at 100 nM for 48 hrs by Annexin V-FITC staining based Guava easyCyte flow cytometric analysis (reference value: 3.4 %); assay type: functional

pIC50 [2]: 7.81
pIC50 [4]: 7.33
pIC50 [6]: 7.27
pIC50 [12]: 7.27
pIC50 [14]: 7.61
SMILES: COc1cc2nccc(Oc3ccc(Nc4nn(C)cc4C(=O)NC45CC6CC(CC(C6)C4)C5)c(F)c3)c2cc1C(N)=O
Activity [1]: Dose-Dependent Effect
Activity [3]: 0.17%
Activity [5]: Non-Toxic
Activity [7]: 0.24%
Activity [8]: 3.21%
inhibition [9]: Active
inhibition [10]: Dose-Dependent Effect
viability at 0.1 µM [11]: 80.2%
viability at 0.3 µM [13]: 43.1%
Activity [15]: 1.5%
Activity [16]: 17.19%
Activity [17]: 1.8%
